We go through 2 compounds from ChEMBL document CHEMBL5385976, “Recognition of arylmethylidene derivatives of imidazothiazolotriazinones as novel tubulin polymerization inhibitors” (RSC Med Chem, 2024).

The test system of data set [1] is NCI-H226. The data set is described as follows: Antiproliferative activity against human NCI-H226 cells assessed as mean cell growth at 10 uM incubated for 48 hrs by SRB assay relative to control. It is filed as functional. For orientation: In SRB staining, fixed cells bind dye roughly in proportion to their protein.
Data set [2] has as its target T1, Tubulin (Homo sapiens) (UniProt P68371+Q9H4B7+P0DPH7+P68366+Q13509+Q71U36+P04350+Q3ZCM7+P07437+P68363+Q9BQE3+Q6PEY2+Q13885+Q9BVA1+Q9BUF5). In words: Inhibition of tubulin polymerization in human K562 cells at 0.5 uM incubated for 24 hrs by confocal microscopy. It is filed as cell-based.
The test system of data set [3] is COLO357. The data set is described as follows: Inhibition of cell growth in human COLO357 cells incubated for 72 hrs by MTT assay. It is filed as functional, cell-based. (In general: Tetrazolium dyes change colour on reduction, which living cells bring about.)
Data set [4] concerns HT-29. In words: Inhibition of cell growth in human HT-29 cells incubated for 72 hrs by MTT assay. Conditions: HT-29, 72 h. It is filed as functional, cell-based.
The test system of data set [5] is K562. In words: Inhibition of cell growth in human K562 cells incubated for 72 hrs by MTT assay. It is filed as functional, cell-based.
For data set [6], the system named is OVCAR-3. The data set is described as follows: Anticancer activity against human OVCAR-3 cells assessed as cell growth at 10 umol/L incubated for 48 hrs by SRB assay relative to control. It is filed as functional. Particulars: OVCAR-3, 48 h, dose 10 µmol/L, read-out: Activity.
The test system of data set [7] is HT-29. In words: Downregulation of beta-actin level in human HT-29 cells upto 100 uM incubated for 48 hrs by Western blot analysis. It is filed as functional, cell-based. (In general: A western blot detects proteins with antibodies after separation by electrophoresis.)
For data set [8], the system named is SK-MEL-28. The data set is described as follows: Anticancer activity against human SK-MEL-28 cells assessed as cell growth at 10 umol/L incubated for 48 hrs by SRB assay relative to control. Conditions: SK-MEL-28, 48 h, dose 10 µmol/L, read-out: Activity. It is filed as functional.
Data set [9] is described as follows: Inhibition of cell growth in human HaCaT cells incubated for 72 hrs by MTT assay. It is filed as toxicity, cell-based.
Data set [10] has as its system OVCAR-8. In words: Anticancer activity against human OVCAR-8 cells assessed as cell growth at 10 umol/L incubated for 48 hrs by SRB assay relative to control. It is filed as functional. Conditions: OVCAR-8, 48 h, dose 10 µmol/L, read-out: Activity.
The test system of data set [11] is Panel NCI-60 (60 carcinoma cell lines). The data set is described as follows: Antiproliferative activity against human panel NCI-60 (60 carcinoma cell lines) assessed as total inhibition of cell growth incubated for 48 hrs by SRB assay. It is filed as functional.
Data set [12] has the same test system. The data set is described as follows: Antiproliferative activity against human panel NCI-60 (60 carcinoma cell lines) incubated for 48 hrs by SRB assay. It is filed as functional.
The subject of data set [13] is Panc02. In words: Inhibition of cell growth in mouse Panc02 cells incubated for 72 hrs by MTT assay. It is filed as functional.
Data set [14] deals with K562. In words: Antiproliferative activity against human K562 cells assessed as mean cell growth at 10 uM incubated for 48 hrs by SRB assay relative to control. It is filed as functional.
In data set [15] the target is T1, Tubulin (Homo sapiens). The data set is described as follows: Inhibition of tubulin polymerization in human HT-29 cells upto 100 uM incubated for 48 hrs by Western blot analysis. It is filed as cell-based.

Active and inactive are the calls of the source. The calls are words filed in the database; no cut-off is given here.

For the compound `COc1cc2c(c(OC)c1OC)-c1ccc(OC)c(=O)cc1[C@@H](NC(C)=O)CC2` [COLCHICINE], in data set [1], the Activity was 8%.

A word on the IC50: it is the concentration at which inhibition is half-maximal. Lower therefore signals greater potency in that assay. Broadly, the GI50 is the concentration that inhibits growth by half. As a reminder, the LC50 is the concentration lethal to half of the exposed cells or organisms. As for `CCN1C(=O)N(CC)C2C1NN=c1s/c(=C\c3ccc(Cl)cc3Cl)c(=O)n12` (stereo not drawn), the inhibition entry in data set [2] and in data set [15] was “Active” each time. Further, the IC50 in data set [3] (COLO357, 72 h) came out at 6 nM; in data set [4], 5.5 nM; in [5] (K562, 72 h), 2 nM. The GI50 in data set [3] (COLO357, time 72 hrs) came to 16 nM; in data set [5] (K562, time 72 hrs), 0.64 nM; in data set [12] it was 80 nM; in [13], 16 nM. For the same compound, the growth at 10 µM in [6] was found to be 13.4%; in [8], 45.7%; in [10] it was 10.8%. For the same compound, the outcome in data set [7] was Active. Moreover, the IC50 at 72 h in [9] was 3.5 nM. The GI in [11] is more than 66.8 µM. Besides, in data set [12], the LC50 was more than 96400 nM. Further, the Activity in data set [14] is 18%.
